# Source: US8637511B2, “Aminopyrimidines useful as kinase inhibitors” (Vertex Pharmaceuticals Incorporated, priority 2005, dated 2014)
# Like-named read-outs stand apart in the source and are kept apart here.
# How the values were obtained:
# [1] = target: T1, FLT-3 (Homo sapiens, UniProt P36888); test: FLT-3 inhibition assay, radiometric filter-binding; type: biochemical
# T1 sequence (P36888 27-993): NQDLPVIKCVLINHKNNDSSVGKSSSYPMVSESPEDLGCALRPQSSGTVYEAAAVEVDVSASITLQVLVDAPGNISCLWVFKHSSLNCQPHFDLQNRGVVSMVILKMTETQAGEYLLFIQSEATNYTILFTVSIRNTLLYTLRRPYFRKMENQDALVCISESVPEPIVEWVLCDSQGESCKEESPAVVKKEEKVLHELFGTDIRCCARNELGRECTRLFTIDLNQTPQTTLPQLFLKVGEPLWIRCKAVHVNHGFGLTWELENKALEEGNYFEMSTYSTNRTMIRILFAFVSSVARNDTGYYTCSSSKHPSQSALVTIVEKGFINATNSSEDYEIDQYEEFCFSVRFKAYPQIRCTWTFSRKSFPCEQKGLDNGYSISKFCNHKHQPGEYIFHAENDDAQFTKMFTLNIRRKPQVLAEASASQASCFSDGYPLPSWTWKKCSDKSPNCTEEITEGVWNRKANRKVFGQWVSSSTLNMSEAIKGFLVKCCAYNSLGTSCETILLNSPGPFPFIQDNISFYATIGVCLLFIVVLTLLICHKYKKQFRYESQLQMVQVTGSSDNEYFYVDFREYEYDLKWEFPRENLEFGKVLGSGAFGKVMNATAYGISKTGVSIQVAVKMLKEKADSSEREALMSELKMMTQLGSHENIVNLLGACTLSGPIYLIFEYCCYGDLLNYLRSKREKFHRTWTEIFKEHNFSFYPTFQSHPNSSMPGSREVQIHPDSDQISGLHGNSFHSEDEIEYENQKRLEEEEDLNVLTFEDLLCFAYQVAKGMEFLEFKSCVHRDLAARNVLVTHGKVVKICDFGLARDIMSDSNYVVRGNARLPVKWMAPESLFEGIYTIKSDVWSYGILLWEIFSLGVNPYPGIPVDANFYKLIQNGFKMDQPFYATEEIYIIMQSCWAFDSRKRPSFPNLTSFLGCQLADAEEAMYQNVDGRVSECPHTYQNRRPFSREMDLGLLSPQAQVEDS
# [2] = system: Colo205 cells; test: Analysis of cell proliferation and viability; type: cell-based; details: Homo sapiens, COLO 205, Colo205 cells, read-out: IC50 value
# [3] = target: T2, JAK3 (Homo sapiens, UniProt P52333); test: biochemical
# T2 sequence (P52333 1-1124): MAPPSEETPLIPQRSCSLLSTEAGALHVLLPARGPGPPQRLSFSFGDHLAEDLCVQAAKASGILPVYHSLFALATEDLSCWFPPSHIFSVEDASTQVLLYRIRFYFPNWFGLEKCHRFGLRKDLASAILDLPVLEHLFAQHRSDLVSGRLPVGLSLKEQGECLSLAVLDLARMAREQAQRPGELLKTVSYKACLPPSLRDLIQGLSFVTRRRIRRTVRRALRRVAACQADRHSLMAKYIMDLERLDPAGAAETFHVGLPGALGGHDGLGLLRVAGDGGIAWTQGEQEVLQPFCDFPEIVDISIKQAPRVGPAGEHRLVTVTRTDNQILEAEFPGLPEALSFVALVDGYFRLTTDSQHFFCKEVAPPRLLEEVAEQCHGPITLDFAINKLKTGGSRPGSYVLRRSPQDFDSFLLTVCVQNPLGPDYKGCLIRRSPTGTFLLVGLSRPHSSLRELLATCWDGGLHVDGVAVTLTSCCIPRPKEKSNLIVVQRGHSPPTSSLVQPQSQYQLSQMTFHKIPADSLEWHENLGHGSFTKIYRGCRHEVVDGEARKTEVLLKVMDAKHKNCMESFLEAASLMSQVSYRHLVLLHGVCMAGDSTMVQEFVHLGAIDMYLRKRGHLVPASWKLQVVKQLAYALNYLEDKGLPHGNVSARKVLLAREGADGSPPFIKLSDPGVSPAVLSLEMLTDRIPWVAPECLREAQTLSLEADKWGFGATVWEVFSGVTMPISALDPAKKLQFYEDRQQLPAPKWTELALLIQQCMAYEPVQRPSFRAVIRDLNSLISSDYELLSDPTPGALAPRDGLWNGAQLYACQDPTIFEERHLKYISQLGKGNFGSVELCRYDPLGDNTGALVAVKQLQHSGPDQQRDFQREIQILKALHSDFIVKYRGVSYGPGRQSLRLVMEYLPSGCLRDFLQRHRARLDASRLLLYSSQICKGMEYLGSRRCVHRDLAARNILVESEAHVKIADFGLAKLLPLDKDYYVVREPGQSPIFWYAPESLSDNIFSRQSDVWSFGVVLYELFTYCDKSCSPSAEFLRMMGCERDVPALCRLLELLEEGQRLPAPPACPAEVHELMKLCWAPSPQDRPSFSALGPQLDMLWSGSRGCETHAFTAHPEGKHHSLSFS
# Experimental: Reactions were carried out in a kinase buffer containing 100 mM HEPES (pH 7.4), 1 mM DTT, 10 mM MgCl2, 25 mM NaCl, and 0.01% BSA. Substrate concentrations in the assay were 5 μM ATP (200 uCi/μmole ATP) and 1 μM poly(Glu)4Tyr. Reactions were carried out at 25° C. and 1 nM JAK3.
# To each well of a 96 well polycarbonate plate was added 1.5 μl of a candidate JAK3 inhibitor along with 50 μl of kinase buffer containing 2 μM poly(Glu)4Tyr and 10 μM ATP. This was then mixed and 50 μl of kinase buffer containing 2 nM JAK3 enzyme was added to start the reaction. After 20 minutes at room temperature (25 C), the reaction was stopped with 50 μl of 20% trichloroacetic acid (TCA) that also contained 0.4 mM ATP. The entire contents of each well were then transferred to a 96 well glass fiber filter plate using a TomTek Cell Harvester. After washing, 60 μl of scintillation fluid was added and ^33P incorporation detected on a Perkin Elmer TopCount.
Structure (SMILES),Ki ([1]; read-out: FLT-3 Ki value) [nM],IC50 ([2]; incubated for 96 hours) [nM],Ki [3] [nM],Ki [1] [nM],Ki ([3]; read-out: JAK3 Ki value) [nM],IC50 ([2]; incubated for 72 hours) [nM]
CCC(=O)Nc1ccc(Sc2nc(Nc3cc(C)n[nH]3)cc(N3CC(C)(OC(C)(C)C)C3)n2)cc1 [Compound 96],50 to 150,≤ 50,10 to 500,,,
Cc1cc(Nc2cc(N3CCC3)nc(Sc3ccc(NC(=O)c4nccn4C)cc3)n2)n[nH]1 [Compound 166],,> 1000,,150 to 1000,10 to 500,
Cc1cnc(Nc2cc(N3CC(N(C)C)C3)nc(Sc3ccc(NC(=O)C4CC4)cc3)n2)s1 [Compound 1],,50 to 1000,10 to 500,50 to 150,,
Cc1cc(Nc2cc(N3CCC3)nc(Sc3ccc(NS(C)(=O)=O)cc3)n2)[nH]n1 [Compound 150],≤ 50,,≤ 10,,,> 200
Cc1cc(Nc2cc(N3CCC3)nc(Sc3ccc(NC(=O)CC(F)(F)F)cc3)n2)n[nH]1 [Compound 40],,50 to 1000,,50 to 150,10 to 500,30 to 200
CC1=NN=C(Nc2cc(N3CCC3)nc(Sc3ccc(NC(=O)c4ccccc4Cl)cc3)n2)C1 [Compound 5],50 to 150,50 to 1000,,,10 to 500,30 to 200
Cc1ccc2cc(Sc3nc(Nc4cc(C)[nH]n4)cc(N4CC(N5CCCC5)C4)n3)ccc2n1 [Compound 182],,,10 to 500,50 to 150,,≤ 30
Cc1cc(Nc2cc(N3CCC3)nc(Sc3ccc(C(=O)NCc4ccccc4)cc3)n2)n[nH]1 [Compound 19],,> 1000,10 to 500,150 to 1000,,
Cc1cc(Nc2cc(N3CC(N4CC[C@H](F)C4)C3)nc(Sc3ccc4ncccc4c3)n2)n[nH]1 [Compound 160],,,,≤ 50,≤ 10,≤ 30
Cc1cc(Nc2cc(N3CCC3)nc(Sc3ccc(NC(=O)NCc4ccccc4)cc3)n2)n[nH]1 [Compound 74],,> 1000,10 to 500,50 to 150,,
CCC(=O)Nc1ccc(Sc2nc(Nc3cc(C4CC4)n[nH]3)cc(N3CC(C)(O)C3)n2)cc1 [Compound 76],,50 to 1000,≤ 10,≤ 50,,
Cc1cc(Nc2cc(N3CCC3)nc(Sc3ccc(NC(=O)CCC(F)(F)F)cc3)n2)[nH]n1 [Compound 121],50 to 150,,10 to 500,,,30 to 200
Cc1cc(Nc2cc(N3CCC3)nc(Sc3ccc(N)cc3)n2)[nH]n1 [Compound 108],≤ 50,> 1000,,,≤ 10,
CC1=NN=C(Nc2cc(N3CCC3)nc(Sc3ccc(NC(=O)c4cccc(C(F)(F)F)c4F)cc3)n2)C1 [Compound 55],,50 to 1000,10 to 500,150 to 1000,,
Cc1cc(Nc2cc(N3CCC3)nc(Sc3ccc(NC(=O)OC(C)(C)C)cc3)n2)n[nH]1 [Compound 26],,> 1000,500 to 2000,50 to 150,,
Cc1cc(Nc2cc(N3CCC3)nc(Sc3ccc(NC(=O)Cc4ccccc4)cc3)n2)n[nH]1 [Compound 35],,50 to 1000,500 to 2000,50 to 150,,
CCC(=O)Nc1ccc(Sc2nc(Nc3cc(C4CC4)n[nH]3)cc(N3CC(N4CCOCC4)C3)n2)cc1 [Compound 78],,≤ 50,,≤ 50,≤ 10,
Cc1cc(Nc2cc(N3CCC3)nc(Sc3ccc(NC(=O)c4ocnc4C)cc3)n2)n[nH]1 [Compound 167],,> 1000,10 to 500,150 to 1000,,
Cc1cc(Nc2cc(N3CC(F)(C4CC4)C3)nc(Sc3ccc4nc(C(F)(F)F)[nH]c4c3)n2)[nH]n1 [Compound 202],,,≤ 10,≤ 50,,30 to 200
CCNC(=O)c1ccc(Sc2nc(Nc3cc(C)[nH]n3)cc(N3CCC3)n2)cc1 [Compound 20],,50 to 1000,10 to 500,50 to 150,,
COC1CN(c2cc(Nc3cc(C)n[nH]3)nc(Sc3ccc(NC(=O)c4ccccc4C(F)(F)F)cc3)n2)C1 [Compound 126],,,,50 to 150,10 to 500,30 to 200
Cc1cc(Nc2cc(N3CCC3)nc(Sc3ccc(NC(=O)c4ccc(Cl)cc4Cl)cc3)n2)n[nH]1 [Compound 162],,50 to 1000,10 to 500,150 to 1000,,
Cc1cc(Nc2cc(N3CCC3)nc(Sc3ccc(NC(=O)C4CC4)cc3)n2)n[nH]1 [Compound 17],50 to 150,50 to 1000,10 to 500,,,
Cc1cc(Nc2cc(N3CC(F)C3)nc(Sc3ccc(NC(=O)c4ccccc4Cl)cc3)n2)[nH]n1 [Compound 60],50 to 150,50 to 1000,10 to 500,,,
CCC(=O)Nc1ccc(Sc2nc(Nc3cc(C)n[nH]3)cc(N3CC(C)(C#N)C3)n2)cc1 [Compound 79],≤ 50,50 to 1000,,,10 to 500,
Cc1cc(Nc2cc(N3CC(OC(C)(C)C)C3)nc(Sc3ccc(NC(=O)c4ccccc4Cl)cc3)n2)[nH]n1 [Compound 66],,50 to 1000,10 to 500,150 to 1000,,
COC1CN(c2cc(Nc3cc(C)[nH]n3)nc(Sc3ccc(NC(=O)c4ccccc4Cl)cc3)n2)C1 [Compound 12],,≤ 50,≤ 10,50 to 150,,
CCC(=O)Nc1ccc(Sc2nc(Nc3cc(C)n[nH]3)cc(N3CC(C)(OC(C)C)C3)n2)cc1 [Compound 95],,≤ 50,10 to 500,50 to 150,,
O=C(CC(F)(F)F)Nc1ccc(Sc2nc(Nc3cc[nH]n3)cc(N3CC(F)(C4CC4)C3)n2)cc1 [Compound 148],,,10 to 500,50 to 150,,> 200
Cc1cc(Nc2cc(N3CCC3)nc(Sc3ccc(NC(=O)c4c(F)cccc4N4CCC4)cc3)n2)n[nH]1 [Compound 8],,50 to 1000,10 to 500,50 to 150,,
